Measurements reported in patent US8404677B2, “Kinase inhibitors” (Genosco, priority 2009, dated 2013).
pIC50: −log10 of the molar value. One block for each molecule: values may come before it.

Columns and labels:
truncated human JAK2 = target: T1, truncated human JAK2 (Homo sapiens, UniProt O60674); assay: Inhibition of enzymatic kinase activity (LANCE Ulight); format: biochemical
T1 construct: truncated human FAK, RET, FLT3, JAK2, and LRRK2 (CARNA BIOSCIENCES™); purchased Carna Biosciences
Description: (§1) Inhibition of Enzymatic SYK, ZAP70, PYK2, FAK, PIM1, RET, FLT3, JAK2 and LRRK2 Kinase Activity
(§2) Compounds of the invention were initially diluted to 10 mM in 100% DMSO (CALBIOCHEM™) for storage and made into kinase buffer solution to create a compound concentration ranging from 1 uM and 10 uM. Serial dilutions of compounds of the invention were dispensed into a 96-well plate (GREINER BIOSCIENCES™) at 6 μL each. Purified full-length human SYK, ZAP70, PIM1, PYK2 and truncated human FAK, RET, FLT3, JAK2, and LRRK2 (CARNA BIOSCIENCES™) were diluted in kinase buffer and added to the compound solutions and pre-incubated for 30 minutes at room temperature (1 hour for PYK2). […] The reaction mixture was incubated for 1 hour (2 hours for PYK2). Following the incubation, the stop solution made with EDTA, water, and Lance detection buffer ([…]™) was added (12 μL each) to stop phosphorylation.

truncated human RET = target: T2, truncated human RET (Homo sapiens, UniProt P07949); assay: as above; format: biochemical
T2 construct: truncated human FAK, RET, FLT3, JAK2, and LRRK2 (CARNA BIOSCIENCES™); purchased Carna Biosciences
T2 sequence (P07949 658-1114 limits assumed): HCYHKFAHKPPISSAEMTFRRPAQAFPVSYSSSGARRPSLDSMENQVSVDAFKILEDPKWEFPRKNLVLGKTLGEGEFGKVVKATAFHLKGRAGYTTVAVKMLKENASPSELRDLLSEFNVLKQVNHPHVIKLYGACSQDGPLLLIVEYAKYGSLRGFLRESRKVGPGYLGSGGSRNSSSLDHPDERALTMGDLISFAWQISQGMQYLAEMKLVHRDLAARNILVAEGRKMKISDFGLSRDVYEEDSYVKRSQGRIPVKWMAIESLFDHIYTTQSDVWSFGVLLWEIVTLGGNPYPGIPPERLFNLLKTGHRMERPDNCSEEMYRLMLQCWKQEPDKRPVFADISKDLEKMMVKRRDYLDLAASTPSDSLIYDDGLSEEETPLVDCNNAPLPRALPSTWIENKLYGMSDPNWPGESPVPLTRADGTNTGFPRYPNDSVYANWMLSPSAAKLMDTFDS
Description: as §1, §2

truncated human FLT3 = target: T3, truncated human FLT3 (Homo sapiens, UniProt P36888); assay: as above; format: biochemical
T3 construct: truncated human FAK, RET, FLT3, JAK2, and LRRK2 (CARNA BIOSCIENCES™); purchased Carna Biosciences
T3 sequence (P36888 564-993 limits assumed): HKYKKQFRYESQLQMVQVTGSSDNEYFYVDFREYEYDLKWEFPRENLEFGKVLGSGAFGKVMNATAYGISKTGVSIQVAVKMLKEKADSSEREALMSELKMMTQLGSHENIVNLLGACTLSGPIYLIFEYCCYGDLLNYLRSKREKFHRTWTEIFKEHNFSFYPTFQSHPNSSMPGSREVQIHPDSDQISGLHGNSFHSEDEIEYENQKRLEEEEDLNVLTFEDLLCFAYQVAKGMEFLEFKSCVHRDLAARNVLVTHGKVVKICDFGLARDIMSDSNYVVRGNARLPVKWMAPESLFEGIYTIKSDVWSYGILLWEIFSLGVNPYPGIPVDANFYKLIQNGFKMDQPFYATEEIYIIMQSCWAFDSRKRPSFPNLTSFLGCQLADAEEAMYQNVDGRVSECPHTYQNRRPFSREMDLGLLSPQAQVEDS
Description: as §1, §2

[1] = tested on: HEL cells expressing human JAK2 V617F; assay: Cell viability assay: JAK2 inhibition; format: cell-based; details: for pIC50: Homo sapiens, 72-hour incubation
Description: Compounds of the invention were tested for cell viability effect on HEL cells. For cell viability assay, HEL cells expressing human JAK2 V617F were obtained from the American Type Culture Collection (ATCC, Manassas, Va.). This cell line was maintained with an Roswell Park Memorial Institute (RPMI) medium (HyClone™) containing 10 bovine calf serum (BCS; Hyclone™) supplemented iron. The HEL cells were seeded at 2×10^4 cells in 96 well culture plates, and serially diluted compound was then added. After a 72-hour incubation period at 37° C., Cell viability was measured using the ATPLite 1 step assay (Perkin-Elmer™) that is based on the quantification of ATP from viable cells. CellTiter Aqueous assay (Promega™) was also performed in parallel as an orthogonal assay. IC50 values were calculated using nonlinear regression and defined as the concentration needed for a 50 reduction in luminescence or absorbance treated versus untreated control cells (Prism™ Software).

truncated human LRRK2 = truncated human LRRK2 (Homo sapiens, UniProt Q5S007); assay: Inhibition of enzymatic kinase activity (LANCE Ulight); format: biochemical
Description: as §1, §2

[2] = tested on: SN4741 cells transfected with vector; assay: Neuroprotection from LRRK2-mediated dopaminergic cell death (H2O2, crystal violet); format: cell-based, murine; details: 100 μM hydrogen peroxide
Description: (§3) SN4741, a murine dopaminergic cell line were cultured in DMEM containing 10 FBS at 37° C., respectively. SN4741 cells (1.5×10^4/well) were seeded in 48 well plates 1 day before transient transfection with 1 μg of the pcDNA3.1 plasmids of either vector, LRRK wildtype cDNA, LRRK G2019S cDNA, by standard CaCl2 precipitation. Two days after transfection, cells were treated with 100 μM hydrogen peroxide for 1 day and cell viability was measured by crystal violet assay. For compound treatment, the test compounds were added at 0.05 μM, 0.5 μM and 5 μM and the cells were incubated for 1 hour prior to the addition of hydrogen peroxide.
(§4) SN4741 cells were transfected with plasmids containing the LRRK2 wild-type or G2019S and incubated them for 2 days followed by addition of 100 μM of hydrogen peroxide for 24 h to sensitize them to oxidative stress. Cell survival was assessed using the crystal violet.

[3] = tested on: SN4741 cells overexpressing LRRK2 wild-type; assay: as above; format: cell-based, murine; details: for Percent Cell Death: LRRK2 WT, 100 μM hydrogen peroxide
Description: as §3, §4

[4] = tested on: SN4741 cells overexpressing LRRK2 G2019S; assay: as above; format: cell-based, murine; details: for Percent Cell Death: 100 μM hydrogen peroxide
Description: as §3, §4

[5] = tested on: TNF-α release in THP-1 cells, LPS stimulation; assay: SYK independent TNF-α release assay (LPS stimulation); format: cell-based, human; details: Homo sapiens; LPS stimulation, At 1 μM, THP-1; read-out: Inhibition of TNF-α Release (percentage inhibition)
Description: For SYK independent TNF-α release assay (i.e., via lipopolysaccharide (LPS)-stimulation), THP-1 cells derived from human monocytic cells were obtained from the American Type Culture Collection (ATCC, Manassas, Va.). This cell line was maintained with an RPMI medium (GIBCO™) containing 10 fetal bovine serum (FBS, GIBCO™) and 0.05 mM 2-mercaptoethanol. The THP-1 cells were seeded at 1×10^5 cells/100 μL/well into 96-well culture plates, and treated with lipopolysaccharide (1 μg/ml), and serially diluted compound was then added. After an 18-hour incubation period at 37° C., supernatants were collected for the determination of the TNF-α level by ELISA, and the remaining cells were subjected to an MTT assay to determine the cytotoxic effects of compound.

T1 sequence (O60674 826-1132 limits assumed): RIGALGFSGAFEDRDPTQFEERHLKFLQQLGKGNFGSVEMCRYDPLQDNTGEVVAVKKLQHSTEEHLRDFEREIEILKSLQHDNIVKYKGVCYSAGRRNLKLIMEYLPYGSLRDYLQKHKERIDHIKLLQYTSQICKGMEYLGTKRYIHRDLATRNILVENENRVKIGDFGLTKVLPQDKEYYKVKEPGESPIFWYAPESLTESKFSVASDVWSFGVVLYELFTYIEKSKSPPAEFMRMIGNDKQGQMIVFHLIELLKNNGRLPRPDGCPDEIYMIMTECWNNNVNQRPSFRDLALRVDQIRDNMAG
Chain of truncated human LRRK2 (Q5S007 1879-2138 limits assumed): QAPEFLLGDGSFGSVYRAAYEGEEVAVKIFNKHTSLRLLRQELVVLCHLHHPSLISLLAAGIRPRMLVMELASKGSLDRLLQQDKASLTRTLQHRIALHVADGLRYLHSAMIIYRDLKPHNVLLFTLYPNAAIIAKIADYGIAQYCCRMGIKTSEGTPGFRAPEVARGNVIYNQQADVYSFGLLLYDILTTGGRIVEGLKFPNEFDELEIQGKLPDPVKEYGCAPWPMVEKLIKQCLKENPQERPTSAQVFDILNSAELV

pIC50 (truncated human JAK2): 8.80 | pIC50 (truncated human RET): 8.39 | pIC50 (truncated human FLT3): 8.04
Structure (SMILES): O=c1[nH]ccc2nc(N3CCC(CO)CC3)nc(Nc3ccc(N4CCOCC4)cc3)c12 [Compound 139, 2-(4-(hydroxymethyl)piperidin-1-yl)-4-(4-morpholinophenylamino)pyrido[4,3-d]pyrimidin-5(6H)-one]
inhibition level compared with Sorafenib [1]: inhibition level greater than those exhibited by Sorafenib | times higher inhibition in IC50 than Sorafenib [1]: about 10 time | pIC50 [1]: 6.82

pIC50 (truncated human LRRK2): 6.49
Structure (SMILES): O=c1[nH]ccc2nc(N3CCC(O)CC3)nc(Nc3cc(C(F)(F)F)cc(C(F)(F)F)c3)c12 [Compound 102, 4-(3,5-bis(trifluoromethyl)phenylamino)-2-(4-hydroxypiperidin-1-yl)pyrido[4,3-d]pyrimidin-5(6H)-one]
Percent Cell Death ([2]; 0.05 uM): 50.0% | Percent Cell Death ([2]; 0.5 uM): 54.4% | Percent Cell Death ([2]; 5 uM): 50.5% | Percent Cell Death ([3]; 0.05 uM): 49.9% | Percent Cell Death ([3]; 0.5 uM): 55.3% | Percent Cell Death ([3]; 5 uM): 46.5% | protective effects against LRRK2-associated cell death ([3]; LRRK2 wild-type, at 0.05 uM and higher, vs vector, DMSO or H2O2 controls): increased protective effects | Percent Cell Death ([4]; 0.05 uM): 54.9% | Percent Cell Death ([4]; 0.5 uM): 56.0% | Percent Cell Death ([4]; 5 uM): 44.0% | protective effects against LRRK2-associated cell death ([4]; at 0.05 uM and higher, vs vector, DMSO or H2O2 controls): increased protective effects

pIC50 (truncated human JAK2): 8.80 | pIC50 (truncated human RET): 8.24 | pIC50 (truncated human FLT3): 7.91
Structure (SMILES): O=c1[nH]ccc2nc(N3CCC(CO)CC3)nc(Nc3ccc(N4CCS(=O)(=O)CC4)cc3)c12 [Compound 137]
inhibition level compared with Sorafenib [1]: inhibition level greater than those exhibited by Sorafenib | pIC50 [1]: 7.05

Structure (SMILES): C[C@@H]1C[C@H]2[C@@H]3CCC4=CC(=O)C=C[C@]4(C)[C@@]3(F)[C@@H](O)C[C@]2(C)[C@@]1(O)C(=O)CO [Dexamethasone, reference compound]
inhibition at 1 µM [5]: 68.4%
